Measured values from the supplement of paper PMC6965134.
± gives the standard deviation of the averaged measurements.

Assay: TIMS collisional cross section (CCS, N2) of the lipid ion; higher = larger ion cross section
Settings: ionization mode: negative, one isomer drawn
Experimental: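 Lipid extracts of human plasma (NIST SRM 1950), mouse liver or HeLa cells were separated by nanoflow C18 LC (30 min gradient) and analysed by TIMS-PASEF on a timsTOF Pro. Ion mobility was calibrated with the Agilent tuning mix (negative mode ions) and converted to collisional cross sections (Mason–Schamp, N2).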

[1] = sample type: Human plasma, ion (formula + adduct): [C47H83O13P-H] 1-
[2] = sample type: Human plasma, ion (formula + adduct): [C45H81O13P-H] 1-
[3] = sample type: Mouse Liver, ion (formula + adduct): [C45H81O13P-H] 1-
[4] = sample type: Mouse Liver, ion (formula + adduct): [C45H79O13P-H] 1-
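Further: lipids from MTBE extraction, five replicate injections per sample, 100 ms TIMS ramp spanning 0.6–1.95 Vs/cm², lipid identity assigned from PASEF MS/MS spectra.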

CCCCC/C=C\C/C=C\CCCCCCCC(=O)OC[C@H](COP(=O)(O)OC[C@@H](O)CO)OC(=O)CCCCCCC/C=C\CCCCCCCC [PG 18:2_18:1]
TIMS collisional cross section (sample type: Mouse Liver, ion (formula + adduct): [C42H77O10P-H] 1-): 281.4 Å²

CC/C=C\C/C=C\C/C=C\C/C=C\C/C=C\C/C=C\CCC(=O)O[C@H](COC(=O)CCCCCCC/C=C\C/C=C\CCCCC)COP(=O)(O)OC[C@@H](O)CO [PG 18:2_22:6]
TIMS collisional cross section (sample type: Mouse Liver, ion (formula + adduct): [C46H75O10P-H] 1-): 287.5 Å²

CCCCC/C=C\C/C=C\C/C=C\C/C=C\CCCC(=O)OC[C@H](COP(=O)(O)OC[C@@H](O)CO)OC(=O)CCCCCCC/C=C\CCCCCCCC [PG 20:4_18:1@]
TIMS collisional cross section (sample type: Mouse Liver, ion (formula + adduct): [C44H77O10P-H] 1-): 285.3 Å²

CCCCC/C=C\C/C=C\C/C=C\C/C=C\CCCC(=O)OC[C@H](COP(=O)(O)OC[C@@H](O)CO)OC(=O)CCCCCCC/C=C\C/C=C\CCCCC [PG 20:4_18:2]
TIMS collisional cross section (sample type: Mouse Liver, ion (formula + adduct): [C44H75O10P-H] 1-): 284.1 Å²

CC/C=C\C/C=C\C/C=C\C/C=C\C/C=C\C/C=C\CCC(=O)O[C@H](COC(=O)CCC/C=C\C/C=C\C/C=C\C/C=C\CCCCC)COP(=O)(O)OC[C@@H](O)CO [PG 20:4_22:6]
TIMS collisional cross section (sample type: Mouse Liver, ion (formula + adduct): [C48H75O10P-H] 1-): 291.4 Å²

CC/C=C\C/C=C\C/C=C\C/C=C\C/C=C\C/C=C\CCC(=O)OC[C@H](COP(=O)(O)OC[C@@H](O)CO)OC(=O)CCCCCCC/C=C\CCCCCC [PG 22:6@_16:1]
TIMS collisional cross section (sample type: Mouse Liver, ion (formula + adduct): [C44H73O10P-H] 1-): 283 Å²

CC/C=C\C/C=C\C/C=C\C/C=C\C/C=C\C/C=C\CCC(=O)OC[C@H](COP(=O)(O)OC[C@@H](O)CO)OC(=O)CCCCC/C=C\C/C=C\C/C=C\C/C=C\CCCCC [PG 22:6@_22:4]
TIMS collisional cross section (sample type: Mouse Liver, ion (formula + adduct): [C50H79O10P-H] 1-): 297.7 Å²

CC/C=C\C/C=C\C/C=C\C/C=C\C/C=C\C/C=C\CCC(=O)OC[C@H](COP(=O)(O)OC[C@@H](O)CO)OC(=O)CC/C=C\C/C=C\C/C=C\C/C=C\C/C=C\C/C=C\CC [PG 22:6_22:6]
TIMS collisional cross section (sample type: Mouse Liver, ion (formula + adduct): [C50H75O10P-H] 1-): 294.8 Å²

CCCC/C=C\CCCCCCCC(=O)OCC(COP(=O)(O)OC1C(O)C(O)C(O)C(O)C1O)OC(=O)CCCCCCC/C=C\C/C=C\CCCCC (configuration not stated) [PI 14:1@_18:2]
TIMS collisional cross section (sample type: Human plasma, ion (formula + adduct): [C41H73O13P+AcO] 1-): 287.2 Å²

CCCCCC/C=C\CCCCCCCC(=O)OC[C@H](COP(=O)(O)OC1C(O)C(O)C(O)[C@@H](O)C1O)OC(=O)CCCCCCCCCCCCCCC (some centres not stated) [PI 16:1_16:0@]
TIMS collisional cross section (sample type: Human plasma, ion (formula + adduct): [C41H77O13P-H] 1-): 282.6 Å²

CCCCC/C=C\C/C=C\C/C=C\C/C=C\CCCC(=O)O[C@H](COC(=O)CCCCCCCCCCCCCCCCC)COP(=O)(O)OC1C(O)C(O)C(O)[C@@H](O)C1O (some centres not stated) [PI 18:0_20:4@]
TIMS collisional cross section [1]: 298.1 Å²

CCCCC/C=C\C/C=C\C/C=C\C/C=C\CCCC(=O)O[C@H](COC(=O)CCCCCCCCCCCCCCCCC)COP(=O)(O)OC1C(O)C(O)C(O)[C@@H](O)C1O (some centres not stated) [PI 18:0_20:4]
TIMS collisional cross section [1]: 297.6 Å²
TIMS collisional cross section (sample type: Mouse Liver, ion (formula + adduct): [C47H83O13P-H] 1-): 297.6 Å²

CCCCCCCC/C=C\CCCCCCCC(=O)OCC(COP(=O)(O)OC1C(O)C(O)C(O)C(O)C1O)OC(=O)CCCCCCC/C=C\CCCCCCCCC (configuration not stated) [PI 18:1_19:1]
TIMS collisional cross section (sample type: Human plasma, ion (formula + adduct): [C46H85O13P-CH3] 1-): 293.6 Å²

CC/C=C\C/C=C\C/C=C\C/C=C\C/C=C\C/C=C\CCC(=O)O[C@H](COC(=O)CCCCCCC/C=C\CCCCCCCC)COP(=O)(O)OC1C(O)C(O)C(O)[C@@H](O)C1O (some centres not stated) [PI 18:1_22:6@]
TIMS collisional cross section (sample type: Mouse Liver, ion (formula + adduct): [C49H81O13P-H] 1-): 299.8 Å²

CCCCC/C=C\C/C=C\CCCCCCCC(=O)OC[C@H](COP(=O)(O)OC1[C@H](O)[C@H](O)C(O)[C@H](O)[C@H]1O)OC(=O)CCCCCCC/C=C\CCCCCCCC (some centres not stated) [PI 18:2_18:1]
TIMS collisional cross section [2]: 292.5 Å²
TIMS collisional cross section [3]: 291.9 Å²

CCCCC/C=C\C/C=C\CCCCCCCC(=O)OC[C@H](COP(=O)(O)OC1C(O)C(O)C(O)[C@@H](O)C1O)OC(=O)CCCCCCC/C=C\C/C=C\CCCCC (some centres not stated) [PI 18:2_18:2]
TIMS collisional cross section [4]: 290.2 Å²

CCCCC/C=C\C/C=C\CCCCCCCCCC(=O)OC[C@H](COP(=O)(O)OC1[C@H](O)[C@H](O)C(O)[C@H](O)[C@H]1O)OC(=O)CCCCCCCCCCCCCCCCC (some centres not stated) [PI 20:2_18:0@]
TIMS collisional cross section (sample type: Human plasma, ion (formula + adduct): [C47H87O13P-H] 1-): 300.4 Å²

CCCCC/C=C\C/C=C\C/C=C\CCCCCCC(=O)OC[C@H](COP(=O)(O)OC1[C@H](O)[C@H](O)C(O)[C@H](O)[C@H]1O)OC(=O)CCCCCCCCCCCCCCC (some centres not stated) [PI 20:3@_16:0]
TIMS collisional cross section [2]: 298.9 Å²

CCCCC/C=C\C/C=C\C/C=C\CCCCCCC(=O)OC[C@H](COP(=O)(O)OC1[C@H](O)[C@H](O)C(O)[C@H](O)[C@H]1O)OC(=O)CCCCCCCCCCCCCCC (some centres not stated) [PI 20:3_16:0@]
TIMS collisional cross section [3]: 293.1 Å²

CCCCC/C=C\C/C=C\C/C=C\C/C=C\CCCC(=O)OC[C@H](COP(=O)(O)OC1[C@H](O)[C@H](O)C(O)[C@H](O)[C@H]1O)OC(=O)CCCCCCCCCCCCCCC (some centres not stated) [PI 20:4@_16:0]
TIMS collisional cross section [4]: 303.5 Å²

CCCCC/C=C\C/C=C\C/C=C\C/C=C\CCCC(=O)OC[C@H](COP(=O)(O)OC1[C@H](O)[C@H](O)C(O)[C@H](O)[C@H]1O)OC(=O)CCCCCCCCCCCCCCC (some centres not stated) [PI 20:4_16:0]
TIMS collisional cross section (sample type: Human plasma, ion (formula + adduct): [C45H79O13P-H] 1-): 291.9 Å²
TIMS collisional cross section [4]: 291.3 Å²

CC/C=C\C/C=C\C/C=C\C/C=C\C/C=C\CCCC(=O)OC[C@H](COP(=O)(O)OC1[C@H](O)[C@H](O)C(O)[C@H](O)[C@H]1O)OC(=O)CCCCCCCCCCCCCCC (some centres not stated) [PI 20:5@_16:0]
TIMS collisional cross section (sample type: Mouse Liver, ion (formula + adduct): [C45H77O13P-H] 1-): 290.1 ± 1.1 Å²

CC/C=C\C/C=C\C/C=C\C/C=C\C/C=C\CCCC(=O)OC[C@H](COP(=O)(O)OC1[C@H](O)[C@H](O)C(O)[C@H](O)[C@H]1O)OC(=O)CCCCCCCCCCCCCCCCC (some centres not stated) [PI 20:5_18:0@]
TIMS collisional cross section (sample type: Mouse Liver, ion (formula + adduct): [C47H81O13P-H] 1-): 296.4 Å²

CCCCCCCCCCCCCCCC(=O)O[C@H](COC(=O)CCCCCCCCCCC)COP(=O)(O)OC[C@H](N)C(=O)O [PS 12:0@_16:0]
TIMS collisional cross section (sample type: Mouse Liver, ion (formula + adduct): [C34H66NO10P-H] 1-): 262.8 Å²

CCCC/C=C\CCCCCCCC(=O)OC[C@H](COP(=O)(O)OC[C@H](N)C(=O)O)OC(=O)CCCCCCCCCCCCCCC [PS 14:1@_16:0]
TIMS collisional cross section (sample type: Human plasma, ion (formula + adduct): [C36H68NO10P-H] 1-): 269 Å²
TIMS collisional cross section (sample type: Mouse Liver, ion (formula + adduct): [C36H68NO10P-H] 1-): 268.4 Å²

CCCCCCCCCCCCCCCC(=O)OC[C@H](COP(=O)(O)OC[C@H](N)C(=O)O)OC(=O)CCCCCCCCCCCCC [PS 16:0_14:0@]
TIMS collisional cross section (sample type: Human plasma, ion (formula + adduct): [C36H70NO10P-H] 1-): 269.6 Å²

CCCCCCCCCCCCCCCCCC(=O)OC[C@H](COP(=O)(O)OC[C@H](N)C(=O)O)OC(=O)CCCCCCCCCCCCCC [PS 18:0_15:0@]
TIMS collisional cross section (sample type: Human plasma, ion (formula + adduct): [C39H76NO10P+OAcO] 1-): 293.3 Å²

CC/C=C\C/C=C\C/C=C\C/C=C\C/C=C\C/C=C\CCC(=O)O[C@H](COC(=O)CCCCCCC/C=C\CCCCCCCC)COP(=O)(O)OC[C@H](N)C(=O)O [PS 18:1@_22:6]
TIMS collisional cross section (sample type: Mouse Liver, ion (formula + adduct): [C46H76NO10P-H] 1-): 288 Å²

CCCCCCCC/C=C\CCCCCCCC(=O)OC[C@H](COP(=O)(O)OC[C@H](N)C(=O)O)OC(=O)CCCCCCCCCCCCCCCCC [PS 18:1_18:0]
TIMS collisional cross section (sample type: Mouse Liver, ion (formula + adduct): [C42H80NO10P-H] 1-): 284.2 Å²

CCCCC/C=C\C/C=C\CCCCCCCC(=O)OC[C@H](COP(=O)(O)OC[C@H](N)C(=O)O)OC(=O)CCCCCCCCCCCCCCC [PS 18:2@_16:0]
TIMS collisional cross section (sample type: Mouse Liver, ion (formula + adduct): [C40H74NO10P-H] 1-): 282.6 Å²

CC/C=C\C/C=C\C/C=C\C/C=C\C/C=C\C/C=C\CCC(=O)O[C@H](COC(=O)CCCCCCCCC/C=C\C/C=C\CCCCC)COP(=O)(O)OC[C@H](N)C(=O)O [PS 20:2@_22:6]
TIMS collisional cross section (sample type: Mouse Liver, ion (formula + adduct): [C48H78NO10P-H] 1-): 296.6 Å²

CCCCC/C=C\C/C=C\C/C=C\CCCCCCC(=O)OC[C@H](COP(=O)(O)OC[C@H](N)C(=O)O)OC(=O)CCCCCCCCCCCCCCC [PS 20:3@_16:0]
TIMS collisional cross section (sample type: Mouse Liver, ion (formula + adduct): [C42H76NO10P-H] 1-): 281.3 Å²

CCCCC/C=C\C/C=C\C/C=C\CCCCCCC(=O)OC[C@H](COP(=O)(O)OC[C@H](N)C(=O)O)OC(=O)CCCCCCCCCCCCCCCCC [PS 20:3_18:0]
TIMS collisional cross section (sample type: Mouse Liver, ion (formula + adduct): [C44H80NO10P-H] 1-): 286.4 Å²
